In patent publication US6545032B1, “Synthesis of [3,5,7]-H-imidazo[1,5-a] imidazol-2(3H)-one compounds” (Torrey Pines Institute for Molecular Studies, priority 1999, dated 2003):

How the values were obtained:
kappa opiate receptor = target: T1, kappa opiate receptor (Cavia porcellus, UniProt P41144); assay: Inhibition of tritiated U69,593 binding to the kappa opiate receptor in guinea pig brain homogenates; set-up: Mean: unit not given beside the values; conditions: 3 nm tritiated U69,593, guinea pig brain membranes; for % Bound: [3H]U69,593 bound; for % Inhibition: inhibition of [3H]U69,593 binding; for Mean: mean bound radioactivity of [3H]U69,593, 2.5 hours 25° C.; for Minus NSB: mean minus non-specific binding
T1 construct: guinea pig cortices and cerebella were homogenized in 40 mL of Buffer A; from tissue; host or cells: guinea pig cortices and cerebella, crude membrane suspension
T1 sequence (P41144 whole entry): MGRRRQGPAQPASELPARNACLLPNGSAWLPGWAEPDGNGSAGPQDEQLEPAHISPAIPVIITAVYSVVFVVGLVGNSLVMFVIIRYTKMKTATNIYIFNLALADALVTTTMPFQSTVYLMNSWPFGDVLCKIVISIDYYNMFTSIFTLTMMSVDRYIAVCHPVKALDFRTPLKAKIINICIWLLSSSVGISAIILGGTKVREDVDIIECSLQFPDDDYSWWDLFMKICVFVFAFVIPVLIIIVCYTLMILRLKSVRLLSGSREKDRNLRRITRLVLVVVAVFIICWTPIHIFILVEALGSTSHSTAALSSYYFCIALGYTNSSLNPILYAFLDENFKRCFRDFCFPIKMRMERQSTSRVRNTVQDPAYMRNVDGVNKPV
Method: The above-prepared library of individual compounds was screened for the ability to inhibit the binding of tritiated Compound U69,593 that is known to bind specifically to the kappa opiate receptor present in guinea pig brain homogenates following literature procedures. [Dooley et al., J. Biol. Chem., 273(30) 18848-18856 (1998)]
Briefly, guinea pig cortices and cerebella were homogenized in 40 mL of Buffer A [50 mM Tris-HCl, pH 7.4] at 4° C. Homogenates were centrifuged [Beckman® J2-HC, 35, 300×g] for 10 minutes. The pellets were resuspended in fresh buffer and incubated at 37° C. for 40 minutes. Following incubation, the suspensions were centrifuged as before, the resulting pellets resuspended in 100 volumes of Tris buffer, and the suspensions combined. Membrane suspensions were prepared and used on the same day. Protein content of the crude homogenates was determined by the method of Bradford, Anal. Biochem., 72:248-252 (1976).
Each assay tube contained 0.5 mL of membrane suspension, 3 nm of tritiated Compound U69,593 [(5a,7a,8b)-(−)-N-methyl-N-(7-(1-pyrrolidinyl)-1-oxaspiro(4,5)dec-8-yl)-benzeneacetamide; Lahti et al., European J. Pharmacol., 109:281-284(199-85)] in a total volume of 0.65 mL. Assay tubes were incubated for 2.5 hours a 25° C. The assay was then filtered through GF-B filters on a Tomec™ harvester (Orange, Conn.). The filters were subsequently washed with 6 mL of 50 mM Tris-HC1, pH 7.4 at 4° C. Bound radioactivity was counted on a Wallace™ Beta-plate Liquid Scintillation Counter (Piscataway, N.J.). Unlabeled U50, 488 [(trans-(dl)-3,4-dichloro-N-methyl-N-[2-(1-pyrrolidinyl)cyclohexyl]-benzeneacetamide) methane sulfonate hydrate; Lahti et al., Life Sci., 31:2257-xx(1982) and Von Voightlander et al., J. Pharmacol. Exp. Ther., 224:7 (1983)] was used as a competitive inhibitor to generate a standard curve and determine nonspecific binding. The results of these assays are shown in the table, below, wherein the “R” groups are as discussed for Example 1.

mu opiate receptor = target: T2, mu opiate receptor (Rattus norvegicus, UniProt P33535); assay: Inhibition of [3H]DAMGO binding to the mu opiate receptor in rat brain homogenates; set-up: Mean: unit not given beside the values; conditions: 0.08 mg of compound per milliliter, 7 nM 3H-labeled DAMGO, rat brain membranes; for % Bound: [3H]DAMGO bound; for Mean: mean bound radioactivity of [3H]DAMGO; for Minus NSB*: mean minus non-specific binding; for % Inhibition: percent inhibition of DAMGO binding
T2 construct: from tissue; host or cells: rat brain membranes/homogenate
T2 sequence (P33535 whole entry): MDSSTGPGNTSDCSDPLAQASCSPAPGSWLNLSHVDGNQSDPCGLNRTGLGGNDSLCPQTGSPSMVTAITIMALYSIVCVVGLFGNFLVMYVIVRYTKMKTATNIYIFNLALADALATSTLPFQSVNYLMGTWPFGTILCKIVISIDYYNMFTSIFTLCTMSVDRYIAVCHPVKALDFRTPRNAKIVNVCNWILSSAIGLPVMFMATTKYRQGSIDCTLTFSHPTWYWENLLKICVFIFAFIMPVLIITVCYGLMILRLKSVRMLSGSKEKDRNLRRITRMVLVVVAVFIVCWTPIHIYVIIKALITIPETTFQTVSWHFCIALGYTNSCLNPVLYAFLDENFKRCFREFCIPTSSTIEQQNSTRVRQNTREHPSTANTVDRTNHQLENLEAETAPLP
Method: The previously prepared [3,5,7]-1H-imidazo[1,5-a]-imidazol-2(3H)-one library of individual compounds was screened for the ability to inhibit the binding of [^3H] [D-Ala^2,MePhe^4,Gly^5-ol]enkephalin (DAMGO) that is known to bind specifically to the mu opiate receptor present in rat brain homogenates following literature procedures. [Dooley et al., Science, 266:2019(1994); U.S. Pat. No. 5,763,193.]
Preparation of rat brain membranes and the receptor binding assay were carried out as described in Dooley et al., Life Sci., 52:1509(1993). Each tube in the screening assay contained 0.08 mg of compound mixture per milliliter, 0.5 mL of membrane suspension (0.1 mg of protein), 7 nM ^3H-labeled DAMGO [specific activity 36 Ci/mmol, obtained from the National Institute on Drug Abuse (NIDA) repository through Chiron Mimotopes PeptideSystems (San Diego, Calif.) and […] of peptide mixture in 50 mM Tris-HCl buffer (pH 7.4). The final volume was 0.65 mL. The results of these screenings are shown in the table, below, wherein the “R” groups are as discussed for Example 1. The results are reported as percent inhibition of DAMGO binding.

| Structure (SMILES) | % Bound (kappa opiate receptor) [%] | % Inhibition (kappa opiate receptor) [%] | Mean (kappa opiate receptor) | Minus NSB (kappa opiate receptor) | % Bound (mu opiate receptor) [%] | Mean (mu opiate receptor) | Minus NSB* (mu opiate receptor) | % Inhibition (mu opiate receptor) [%] |
| --- | --- | --- | --- | --- | --- | --- | --- | --- |
| CCC(c1ccccc1)c1nc(C(C)C)c2n1C(C(C)C)C(=O)N2 (mixture of isomers) [Pool 68] | 106.786 | −6.786 | 2013.3 | 1106.30 | 66 | 935.45 | 627.45 | 34 |
| CC(C)c1nc(CC(C)c2ccccc2)n2c1NC(=O)C2C(C)C (mixture of isomers) [Pool 69] | 67.157 | 32.843 | 1602.75 | 695.75 | 62 | 900.1 | 592.10 | 38 |
| CCC(C)c1nc(C(C)C)c2n1C(C(C)C)C(=O)N2 (mixture of isomers) [Pool 124] | 62.630 | 37.370 | 1555.85 | 648.85 | 62 | 901.85 | 593.85 | 38 |
| CCCCC(CC)c1nc(C(C)C)c2n1C(C(C)C)C(=O)N2 (mixture of isomers) [Pool 128] | 57.563 | 42.437 | 1503.35 | 596.35 | 60 | 881.35 | 573.35 | 40 |
| CSCCc1nc(C)n2c1NC(=O)C2C(C)C (racemic) [Pool 59] | 78.953 | 21.047 | 1724.95 | 817.95 | 59 | 874.75 | 566.75 | 41 |
| CCCCc1nc(C)n2c1NC(=O)C2C(C)C (racemic) [Pool 60] | 81.892 | 18.108 | 1755.4 | 848.40 | 62 | 902.8 | 594.80 | 38 |
| CCCc1nc(C)n2c1NC(=O)C2C(C)C (racemic) [Pool 61] | 50.845 | 49.155 | 1433.75 | 526.75 | 39 | 677.65 | 369.65 | 61 |
| Cc1nc(CC2CCCCC2)c2n1C(C(C)C)C(=O)N2 (racemic) [Pool 62] | 83.909 | 16.091 | 1776.3 | 869.30 | 52 | 805 | 497.00 | 48 |
| Cc1nc(Cc2ccccc2)c2n1C(C(C)C)C(=O)N2 (racemic) [Pool 63] | 84.913 | 15.087 | 1786.7 | 879.70 | 57 | 854.35 | 546.35 | 43 |
| Cc1nc(Cc2ccc(O)cc2)c2n1C(C(C)C)C(=O)N2 (racemic) [Pool 64] | 61.631 | 38.369 | 1545.5 | 638.50 | 42 | 710.9 | 402.90 | 58 |
| CC(C)c1nc(C2(c3ccccc3)CC2)n2c1NC(=O)C2C(C)C (racemic) [Pool 67] | 84.662 | 15.338 | 1784.1 | 877.10 | 55 | 830 | 522.00 | 45 |
| Cc1cccc(Cc2nc(C(C)C)c3n2C(C(C)C)C(=O)N3)c1 (racemic) [Pool 70] | 107.389 | −7.389 | 2019.55 | 1112.55 | 68 | 954.15 | 646.15 | 32 |
| CC(C)c1nc(Cc2cccc(F)c2)n2c1NC(=O)C2C(C)C (racemic) [Pool 71] | 61.245 | 38.755 | 1541.5 | 634.50 | 57 | 853.7 | 545.70 | 43 |
| CC(C)c1nc(Cc2cccc(Br)c2)n2c1NC(=O)C2C(C)C (racemic) [Pool 72] | 65.748 | 34.252 | 1588.15 | 681.15 | 27 | 563 | 255.00 | 73 |
| CC(C)c1nc(Cc2cccc(C(F)(F)F)c2)n2c1NC(=O)C2C(C)C (racemic) [Pool 73] | 78.205 | 21.795 | 1717.2 | 810.20 | 69 | 967.25 | 659.25 | 31 |
| Cc1ccc(Cc2nc(C(C)C)c3n2C(C(C)C)C(=O)N3)cc1 (racemic) [Pool 74] | 48.287 | 51.713 | 1407.25 | 500.25 | 58 | 858.65 | 550.65 | 42 |
| CC(C)c1nc(Cc2ccc(F)cc2)n2c1NC(=O)C2C(C)C (racemic) [Pool 75] | 71.134 | 28.866 | 1643.95 | 736.95 | 47 | 758.2 | 450.20 | 53 |
| COc1cccc(Cc2nc(C(C)C)c3n2C(C(C)C)C(=O)N3)c1 (racemic) [Pool 76] | 91.902 | 8.098 | 1859.1 | 952.10 | 57 | 854 | 546.00 | 43 |
| CC(C)c1nc(Cc2ccc(Br)cc2)n2c1NC(=O)C2C(C)C (racemic) [Pool 77] | 73.658 | 26.342 | 1670.1 | 763.10 | 39 | 682.95 | 374.95 | 61 |
| COc1ccc(Cc2nc(C(C)C)c3n2C(C(C)C)C(=O)N3)cc1 (racemic) [Pool 78] | 87.360 | 12.640 | 1812.05 | 905.05 | 49 | 775.2 | 467.20 | 51 |
| Cc1nc(CO)c2n1C(C(C)C)C(=O)N2 (centres unmarked) [Pool 39] | 78.827 | 21.173 | 1723.65 | 816.65 | – | – | – | – |
